Data on 14 compounds can be found in DBAASP.

Test systems include Escherichia coli; Staphylococcus aureus; Pseudomonas aeruginosa.
Assay in all cases: ≥ marks a high value that may be exact or a test limit, other limits are often not marked, values filed in µg/mL are converted to µM
The test system of experiment [1] is Escherichia coli ATCC 25922.
Experiment [2] concerns Acinetobacter baumannii ATCC 19606.
The subject of experiment [3] is Pseudomonas aeruginosa ATCC 27853.
In experiment [4] the test system is Staphylococcus aureus ATCC 25923.
Experiment [5] concerns Candida albicans ATCC 90028.
The subject of experiment [6] is Staphylococcus epidermidis ATCC 12228.
For experiment [7], the system named is Staphylococcus aureus ATCC 29213.

The structures appear in SMILES notation. In brackets after ≈: the same amount, converted by molar mass.

The term MIC denotes the lowest concentration that inhibits growth of the organism. A low value points to a more susceptible organism. Regarding `CC(C)C[C@H](NC(=O)CNC(=O)[C@H](C)NC(=O)[C@H](CC(C)C)NC(=O)[C@H](CCCCN)NC(=O)[C@H](CCCCN)NC(=O)[C@H](C)NC(=O)[C@H](CC(C)C)NC(=O)CNC(=O)[C@H](C)NC(=O)[C@H](Cc1c[nH]c2ccccc12)NC(=O)[C@H](CCCCN)NC(=O)[C@H](CCCCN)NC(=O)[C@H](C)NC(=O)[C@H](CC(C)C)NC(=O)CNC(=O)[C@H](C)NC(=O)[C@H](CC(C)C)NC(=O)[C@H](CCCCN)NC(=O)[C@@H](N)CCCCN)C(=O)N[C@@H](C)C(N)=O` [KKLAGLAKKWAGLAKKLAGLA], the MIC in the experiment on Escherichia coli came out at 3.74 µM (≈ 8 µg/mL); with Staphylococcus aureus, 7.49 µM (≈ 16 µg/mL); against Pseudomonas aeruginosa, 7.49 µM (≈ 16 µg/mL).
Turning to `CC(C)C[C@H](NC(=O)[C@H](CC(C)C)NC(=O)[C@H](CCCCN)NC(=O)[C@H](CCCCN)NC(=O)[C@H](CC(C)C)NC(=O)[C@@H](NC(=O)[C@H](CCCCN)NC(=O)[C@H](CC(C)C)NC(=O)[C@@H](N)Cc1ccccc1)C(C)C)C(N)=O` [FLKVLKKLL], the minimum inhibitory concentration (MIC) in experiment [1] was 29.1 µM (≈ 32 µg/mL); in experiment [2], 29.1 µM (≈ 32 µg/mL); in experiment [3] it was 7.26 µM (≈ 7.99 µg/mL); in [4] it was 29.1 µM (≈ 32 µg/mL).
For `CC[C@H](C)[C@H](NC(=O)[C@H](CC(N)=O)NC(=O)[C@H](Cc1cnc[nH]1)NC(=O)[C@H](Cc1ccccc1)NC(=O)[C@H](CC(C)C)NC(=O)[C@H](CCSC)NC(=O)CNC(=O)[C@H](CC(C)C)NC(=O)[C@H](CCSC)NC(=O)[C@H](CCCCN)NC(=O)[C@@H](N)CC(C)C)C(=O)N[C@@H](CCCN=C(N)N)C(=O)N[C@@H](CC(N)=O)C(=O)N[C@H](C(=O)N[C@@H](CC(C)C)C(=O)N[C@@H](CCCCN)C(=O)N[C@H](C(=O)N[C@H](C(N)=O)C(C)C)[C@@H](C)O)[C@@H](C)CC` [LKMLGMLFHNIRNILKTV], the MIC was 128 µM (≈ 274 µg/mL) in experiment [4], at least 64 µM in experiment [5] and 64 µM (≈ 137 µg/mL) in experiment [6].
For `CC[C@H](C)[C@H](NC(=O)[C@H](CCCN=C(N)N)NC(=O)[C@H](CCC(N)=O)NC(=O)[C@@H](NC(=O)[C@H](C)NC(=O)[C@H](CCCN=C(N)N)NC(=O)[C@@H](N)CCCCN)C(C)C)C(=O)N[C@@H](CCCCN)C(=O)N[C@@H](CC(=O)O)C(=O)N[C@@H](Cc1ccccc1)C(=O)N[C@@H](CC(C)C)C(=O)N[C@@H](CCCN=C(N)N)C(=O)O` [KRAVQRIKDFLR], the minimal inhibitory concentration (MIC) in [1] is 5 µM (≈ 7.65 µg/mL); in [7], 20 µM (≈ 30.6 µg/mL); in [3], 10 µM (≈ 15.3 µg/mL); in experiment [5] it was at least 40 µM.
`CC[C@H](C)[C@H](NC(=O)CN)C(=O)N[C@@H](CCCCN)C(=O)N[C@@H](CCCCN)C(=O)N[C@@H](Cc1c[nH]c2ccccc12)C(=O)N[C@@H](CC(C)C)C(=O)N[C@@H](Cc1cnc[nH]1)C(=O)N[C@@H](CO)C(=O)N1CCC[C@H]1C(=O)N[C@@H](CCCCN)C(=O)N[C@@H](CCCCN)C(=O)N[C@@H](Cc1ccccc1)C(=O)NCC(=O)N[C@@H](CCCCN)C(=O)N[C@@H](CCCCN)C(=O)N[C@@H](Cc1ccccc1)C(=O)N[C@H](C(=O)N[C@@H](CCCCN)C(=O)N[C@@H](CCCCN)C(=O)N[C@H](C(=O)N[C@@H](CCSC)C(=O)N[C@@H](CC(N)=O)C(=O)N[C@@H](CO)C(N)=O)[C@@H](C)CC)C(C)C` [GIKKWLHSPKKFGKKFVKKIMNS]: the MIC in experiment [1] was determined as 2.5 µM (≈ 6.82 µg/mL); in [6] it was 1.25 µM (≈ 3.41 µg/mL).
On to `CC[C@H](C)[C@H](NC(=O)CN)C(=O)N[C@@H](CCCCN)C(=O)N[C@@H](CCCCN)C(=O)N[C@@H](Cc1c[nH]c2ccccc12)C(=O)N[C@@H](CC(C)C)C(=O)N[C@@H](Cc1cnc[nH]1)C(=O)N[C@@H](CO)C(=O)N[C@@H](C)C(=O)N[C@@H](CCCCN)C(=O)N[C@@H](CCCCN)C(=O)N[C@@H](Cc1ccccc1)C(=O)N1CCC[C@H]1C(=O)N[C@@H](CCCCN)C(=O)N[C@@H](CCCCN)C(=O)N[C@@H](Cc1ccccc1)C(=O)N[C@H](C(=O)N[C@@H](CCCCN)C(=O)N[C@@H](CCCCN)C(=O)N[C@H](C(=O)N[C@@H](CCSC)C(=O)N[C@@H](CC(N)=O)C(=O)N[C@@H](CO)C(N)=O)[C@@H](C)CC)C(C)C` [GIKKWLHSAKKFPKKFVKKIMNS], for which the results for the MIC in experiment [1] and in experiment [6] were 1.25 µM (≈ 3.43 µg/mL) and 0.31 µM (≈ 0.85 µg/mL), respectively.
Take `CC(C)C[C@H](NC(=O)[C@H](CC(C)C)NC(=O)[C@H](CCCCN)NC(=O)[C@H](CCCCN)NC(=O)[C@H](CC(C)C)NC(=O)[C@H](CC(N)=O)NC(=O)[C@H](CCCCN)NC(=O)[C@H](CC(C)C)NC(=O)[C@@H](N)Cc1ccccc1)C(N)=O` [FLKNLKKLL]: the MIC was 115 µM (≈ 128 µg/mL) in experiment [1], above 115 µM in [2], 7.17 µM (≈ 7.99 µg/mL) in [3] and above 115 µM in experiment [4].
As for `CC[C@H](C)[C@H](NC(=O)CN)C(=O)N[C@@H](CCCCN)C(=O)N[C@@H](CCCCN)C(=O)N[C@@H](Cc1c[nH]c2ccccc12)C(=O)N[C@@H](CC(C)C)C(=O)N[C@@H](Cc1cnc[nH]1)C(=O)N[C@@H](CCCCN)C(=O)NCC(=O)N[C@@H](CCCCN)C(=O)N[C@@H](CCCCN)C(=O)N[C@@H](Cc1ccccc1)C(=O)NCC(=O)N[C@@H](CCCCN)C(=O)N[C@@H](CCCCN)C(=O)N[C@@H](Cc1ccccc1)C(=O)N[C@H](C(=O)N[C@@H](CCCCN)C(=O)N[C@@H](CCCCN)C(=O)N[C@H](C(=O)N[C@@H](CCSC)C(=O)N[C@@H](CC(N)=O)C(=O)N[C@@H](CO)C(N)=O)[C@@H](C)CC)C(C)C` [GIKKWLHKGKKFGKKFVKKIMNS], the minimum inhibitory concentration (MIC) was determined as 0.63 µM (≈ 1.72 µg/mL) in experiment [1] and 0.08 µM (≈ 0.218 µg/mL) in [6].
In the case of `CC[C@H](C)[C@H](N)C(=O)N[C@@H](CC(N)=O)C(=O)N[C@@H](Cc1c[nH]c2ccccc12)C(=O)N[C@@H](CC(C)C)C(=O)N[C@@H](CCCCN)C(=O)N[C@@H](CC(C)C)C(=O)NCC(=O)N[C@@H](CCCCN)C(=O)N[C@@H](CCCCN)C(=O)N[C@H](C(=O)N[C@@H](CC(C)C)C(=O)NCC(=O)N[C@@H](C)C(=O)N[C@@H](CC(C)C)C(N)=O)[C@@H](C)CC` [INWLKLGKKILGAL], the MIC against Staphylococcus aureus was determined as 15.5 µM (≈ 24.3 µg/mL); against Pseudomonas aeruginosa, 86.6 µM (≈ 136 µg/mL).
`CC(C)C[C@H](NC(=O)[C@H](CC(C)C)NC(=O)[C@H](CCCCN)NC(=O)[C@H](CCCCN)NC(=O)[C@H](CC(C)C)NC(=O)[C@@H]1CCCN1C(=O)[C@H](CCCCN)NC(=O)[C@H](CC(C)C)NC(=O)[C@@H](N)Cc1ccccc1)C(N)=O` [FLKPLKKLL]: the minimal inhibitory concentration (MIC) in experiment [1] was above 116 µM; in experiment [2], above 116 µM; in experiment [3], 7.28 µM (≈ 7.99 µg/mL); in experiment [4], above 116 µM.
In the case of `CC[C@H](C)[C@H](NC(=O)CN)C(=O)NCC(=O)N[C@@H](CO)C(=O)N[C@H](C(=O)N[C@@H](CC(C)C)C(=O)NCC(=O)N[C@H](C(=O)N[C@H](C(=O)N[C@@H](C)C(=O)N[C@@H](CCCCN)C(=O)NCC(=O)N[C@@H](CC(C)C)C(=O)N1CCC[C@H]1C(=O)N[C@H](C(=O)N[C@@H](CC(C)C)C(=O)N[C@H](C(=O)N[C@@H](CO)C(=O)N[C@@H](Cc1c[nH]c2ccccc12)C(=O)N[C@H](C(=O)N[C@@H](CCCCN)C(=O)N[C@@H](CC(N)=O)C(=O)N[C@@H](CCCN=C(N)N)C(N)=O)[C@@H](C)CC)[C@@H](C)CC)[C@@H](C)O)[C@@H](C)CC)C(C)C)[C@@H](C)CC` [GIGSILGVIAKGLPTLISWIKNR], the values for the MIC in experiment [1], in experiment [4] and in experiment [5] were 20 µM (≈ 48.1 µg/mL), 5 µM (≈ 12 µg/mL) and 20 µM (≈ 48.1 µg/mL), respectively.
Take `CC[C@H](C)[C@H](NC(=O)CN)C(=O)N[C@@H](CCCCN)C(=O)N[C@@H](CCCCN)C(=O)N[C@@H](Cc1c[nH]c2ccccc12)C(=O)N[C@@H](CC(C)C)C(=O)N[C@@H](Cc1cnc[nH]1)C(=O)N[C@@H](CO)C(=O)N[C@@H](C)C(=O)N[C@@H](CCCCN)C(=O)N[C@@H](CCCCN)C(=O)N[C@@H](Cc1ccccc1)C(=O)NCC(=O)N[C@@H](CCCCN)C(=O)N[C@@H](CCCCN)C(=O)N[C@@H](Cc1ccccc1)C(=O)N[C@H](C(=O)N[C@@H](CCCCN)C(=O)N[C@@H](CCCCN)C(=O)N[C@H](C(=O)N[C@@H](CCSC)C(=O)N[C@@H](CC(N)=O)C(=O)N[C@@H](CO)C(N)=O)[C@@H](C)CC)C(C)C` [GIKKWLHSAKKFGKKFVKKIMNS]: the MIC in experiment [1] stood at 0.63 µM (≈ 1.7 µg/mL); in [6], 0.16 µM (≈ 0.433 µg/mL).
The like results for `CC[C@H](C)[C@H](NC(=O)CN)C(=O)N[C@@H](CCCCN)C(=O)N[C@@H](CCCCN)C(=O)N[C@@H](Cc1c[nH]c2ccccc12)C(=O)N1CCC[C@H]1C(=O)N[C@@H](Cc1cnc[nH]1)C(=O)N[C@@H](CCCCN)C(=O)N1CCC[C@H]1C(=O)N[C@@H](CCCCN)C(=O)N[C@@H](CCCCN)C(=O)N[C@@H](Cc1ccccc1)C(=O)NCC(=O)N[C@@H](CCCCN)C(=O)N[C@@H](CCCCN)C(=O)N[C@@H](Cc1ccccc1)C(=O)N[C@H](C(=O)N[C@@H](CCCCN)C(=O)N[C@@H](CCCCN)C(=O)N[C@H](C(=O)N[C@@H](CCSC)C(=O)N[C@@H](CC(N)=O)C(=O)N[C@@H](CO)C(N)=O)[C@@H](C)CC)C(C)C` [GIKKWPHKPKKFGKKFVKKIMNS] were, in that order, 10 µM (≈ 27.5 µg/mL) and 5 µM (≈ 13.8 µg/mL).
Take `CC(C)C[C@H](NC(=O)[C@H](CC(C)C)NC(=O)[C@H](CCCCN)NC(=O)[C@H](CCCCN)NC(=O)[C@H](CC(C)C)NC(=O)[C@H](CCC(=O)O)NC(=O)[C@H](CCCCN)NC(=O)[C@H](CC(C)C)NC(=O)[C@@H](N)Cc1ccccc1)C(N)=O` [FLKELKKLL]: the minimal inhibitory concentration (MIC) in [1] is 113 µM (≈ 128 µg/mL); in [2], 113 µM (≈ 128 µg/mL); in [3] it was 14.1 µM (≈ 16 µg/mL); in experiment [4], above 113 µM.
